Experimental data: patent US20230399341A1, “7-PHENYL SUBSTITUTED 2-AMINOQUINAZOLINE INHIBITORS OF HPK1” (MERCK SHARP & DOHME LLC, priority 2020, published 2023)

molecular target: T1, Human HPK1, catalytic domain (Homo sapiens, UniProt Q92918); assay: HPK1-SLP76 TR-FRET Assay; format: biochemical; details: 75 pM HPK1, ATP 10 uM, SLP76 10 nM, 30 min pre-incubation, 60 min reaction
T1 sequence (Q92918 1-346): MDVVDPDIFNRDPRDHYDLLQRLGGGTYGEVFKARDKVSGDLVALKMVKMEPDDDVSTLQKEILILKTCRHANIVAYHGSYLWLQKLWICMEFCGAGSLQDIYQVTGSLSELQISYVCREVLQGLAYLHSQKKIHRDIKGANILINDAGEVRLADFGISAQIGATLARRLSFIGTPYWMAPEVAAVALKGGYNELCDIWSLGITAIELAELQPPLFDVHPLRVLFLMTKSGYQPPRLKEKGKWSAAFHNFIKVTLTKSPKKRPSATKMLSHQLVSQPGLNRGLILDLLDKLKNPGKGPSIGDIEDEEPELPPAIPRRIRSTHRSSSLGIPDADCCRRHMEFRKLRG

IC50	Structure (SMILES)
17.2 nM	COc1cc(C2CC2)ccc1Nc1ncc2c(N)c(F)c(-c3cnc4c(c3C)NCCO4)cc2n1 [Compound 2-176, N~2~-(4-cyclopropyl-2-methoxyphenyl)-6-fluoro-7-(8-methyl-2,3-dihydro-1H-pyrido[2,3-b][1,4]oxazin-7-yl)quinazoline-2,5-diamine]
328 nM	COc1cc2c(cc1Nc1ncc3ccc(-c4ccc(C#N)nc4)cc3n1)CN(C)CC2 [Compound 1-103, 5-{2-[(6-methoxy-2-methyl-1,2,3,4-tetrahydroisoquinolin-7-yl)amino]quinazolin-7-yl}pyridine-2-carbonitrile]
0.816 nM	Cc1c(-c2c(F)c(N)c3cnc(Nc4ccc5c(c4)CN(C(C)C)CC5)nc3c2Cl)cnc2c1NCCO2 [Compound 2-112, 8-chloro-6-fluoro-N2-(2-isopropyl-1,2,3,4-tetrahydroisoquinolin-7-yl)-7-(8-methyl-2,3-dihydro-1H-pyrido[2,3-b][1,4]oxazin-7-yl)quinazoline-2,5-diamine]
189 nM	COc1cc2c(cc1Nc1ncc3ccc(N4CC(O)(C(F)(F)F)C4)cc3n1)CN(C)CC2 (racemic) [Compound 3-54, (S and R)-1-12-[(6-methoxy-2-methyl-1,2,3,4-tetrahydroiso-quinolin-7-yl)amino]quinazolin-7-yl}-3-(trifluoromethyl)azet-idin-3-ol]
0.169 nM	CCC1COC(=O)N1c1cc(N)c2cnc(Nc3cc4c(cc3OC)CCN(C)C4)nc2c1 (single isomer, unassigned) [Compound 3-16, (S or R)-3-{5-amino-2-[(6-methoxy-2-methyl-1,2,3,4-tetrahydroisoquinolin-7-yl)amino]quinazolin-7-yl}-4-ethyl-1,3-oxazolidin-2-one]
0.633 nM	COc1cc2c(cc1Nc1ncc3c(N)cc(-c4cnc5c(c4C)NCCO5)cc3n1)CN(C)CC2 [Compound 2-40, N~2~-(6-methoxy-2-methyl-1,2,3,4-tetrahydroisoquinolin-7-yl)-7-(8-methyl-2,3-dihydro-1H-pyrido[2,3-b][1,4]oxazin-7-yl)quinazoline-2,5-diamine]
0.249 nM	COc1cc2c(cc1Nc1ncc3c(N)c(F)c(-c4cncc(N)c4C)cc3n1)CN(C)CC2 [Compound 2-1, 7-(5-amino-4-methylpyridin-3-yl)-6-fluoro-N~2~-(6-methoxy-2-methyl-1,2,3,4-tetrahydroisoquinolin-7-yl)quinazoline-2,5-diamine]
136 nM	COc1cc2c(cc1Nc1ncc3ccc(-c4ccc(C#N)cc4C)cc3n1)CNCC2 [Compound 1-33, 4-{2-[(6-methoxy-1,2,3,4-tetrahydroisoquinolin-7-yl)amino]quinazolin-7-yl}-3-methylbenzonitrile]
0.0946 nM	Cc1c(-c2c(F)c(N)c3cnc(Nc4ccc(S(C)(=O)=O)cc4)nc3c2Cl)cnc2c1NCCO2 [Compound 2-103, (+ or −)-8-chloro-6-fluoro-7-(8-methyl-2,3-dihydro-1H-pyrido[2,3-b][1,4]oxazin-7-yl)-N~2~- [4-(methylsulfonyl)phenyl] quinazoline-2,5-diamine]
0.0528 nM	Cc1c(-c2c(F)c(N)c3cnc(Nc4ccc5c(c4)CN(C)CC54CC4)nc3c2C#N)cnc2c1NCCO2 [Compound 2-109, (+ or −)-5-amino-6-fluoro-2-((2′-methyl-2′,3′-dihydro-1′H-spiro[cyclopropane-1,4′-isoquinolin]-7′-yl)amino)-7-(8-methyl-2,3-dihydro-1H-pyrido[2,3-b][1,4]oxazin-7-yl)quinazoline-8-carbonitrile]
22.2 nM	COc1cc2c(cc1Nc1ncc3ccc(-c4cnn(CC(C)O)c4)cc3n1)CN(C)CC2 (racemic) [Compound 1-102, (R and S)-1-(4-{2-[(6-methoxy-2-methyl-1,2,3,4-tetrahydroisoquinolin-7-yl)amino]quinazolin-7-yl}-1H-pyrazol-1-yl)propan-2-ol]
0.0508 nM	Cc1c(-c2cc3nc(Nc4ccc5c(c4)CN(C)CC54CC4)ncc3c(N)c2F)cnc2c1NCCO2 [Compound 2-73, 6-fluoro-7-(8-methyl-2,3-dihydro-1H-pyrido[2,3-b][1,4]oxazin-7-yl)-N~2~- (2′-methyl-2′,3′-dihydro-1′H-spiro[cyclopropane-1,4′-isoquinolin]-7′-yl)quinazoline-2,5-diamine]
222 nM	COc1cc2c(cc1Nc1ncc3ccc(-c4cccc(C(=O)NCCN5CCCC5)c4)cc3n1)CNCC2 [Compound 1-83, 3-{2-[(6-methoxy-1,2,3,4-tetrahydroisoquinolin-7-yl)amino]quinazolin-7-yl}-N-[2-(pyrrolidin-1-yl)ethyl]benzamide]
2.81 nM	COc1cc2c(cc1Nc1ncc3c(N)c(F)c(Nc4cc(CO)ccn4)cc3n1)CN(C)CC2 [Compound 3-80, [2-({5-amino-6-fluoro-2-[(6-methoxy-2-methyl-1,2,3,4-tetra-hydroisoquinolin-7-yl)amino]-quinazolin-7-yl}amino)pyridin-4-yl]methanol]
0.165 nM	Cc1c(-c2cc3nc(Nc4ccc(CC(N)=O)cc4)ncc3cc2F)cnc2c1NCCO2 [Compound 1-131, 2-(4-{[6-fluoro-7-(8-methyl-2,3-dihydro-1H-pyrido[2,3-b][1,4]oxazin-7-yl)quinazolin-2-yl]amino}phenyl)acetamide]
0.885 nM	COc1cc2c(cc1Nc1ncc3ccc(-c4cncc5[nH]ccc45)cc3n1)CNCC2 [Compound 1-45, N-(6-methoxy-1,2,3,4-tetrahydroisoquinolin-7-yl)-7-(1H-pyrrolo[2,3-c]pyridin-4-yl)quinazolin-2-amine]
0.082 nM	Cc1c(-c2cc3nc(Nc4cccc(S(C)(=O)=O)c4)ncc3c(N)c2F)cnc2c1NCCO2 [Compound 2-14, 6-fluoro-7-(8-methyl-2,3-dihydro-1H-pyrido[2,3-b][1,4]oxazin-7-yl)-N~2~- [3-(methylsulfonyl)phenyl] quinazoline-2,5-diamine]
0.22 nM	Cc1ccncc1-c1cc2nc(Nc3ccc4c(c3)CN(C)CC4)ncc2c(N)c1F [Compound 2-122, 6-fluoro-7-(4-methylpyridin-3-yl)-N~2~- (2-methyl-1,2,3,4-tetrahydroisoquinolin-7-yl)quinazoline-2,5-diamine]
68.5 nM	COc1cc2c(cc1Nc1ncc3ccc(Nc4cccc(N5CCN(C)C5=O)c4)cc3n1)CN(C)CC2 [Compound 3-43, 1-[3-({2-[(6-methoxy-2-methyl-1,2,3,4-tetrahydroisoquinolin-7-yl)amino]quinazolin-7-yl}-amino)phenyl]-3-methylimidaz-olidin-2-one]
149 nM	COc1cc2c(cc1Nc1ncc3ccc(NCC4CNC(=O)O4)cc3n1)CN(C)CC2 (racemic) [Compound 3-26, (S and R)-5-[({2-1(6-methoxy-2-methyl-1,2,3,4-tetrahydroiso-quinolin-7-yl)amino]quinazolin-7-yl}amino)methyl]-1,3-oxazol-idin-2-one]
0.0496 nM	CNC(=O)Cc1ccc(Nc2ncc3c(N)c(F)c(-c4cnc5c(c4C)NCCO5)cc3n2)cc1 [Compound 2-13]
0.267 nM	CN1Cc2cc(Nc3ncc4c(N)c(F)c(-c5cnc6c(c5)NCCO6)cc4n3)ccc2C2(CC2)C1 [Compound 2-151, 7-(2,3-dihydro-1H-pyrido[2,3-b][1,4]oxazin-7-yl)-6-fluoro-N~2~-(2′-methyl-2′,3′-dihydro-1′H-spiro[cyclopropane-1,4′-isoquinolin]-7′-yl)quinazoline-2,5-diamine]
0.377 nM	COc1cc2c(cc1Nc1ncc3c(N)c(F)c(-c4cnc5c(c4C)NCCO5)cc3n1)CCN(C)C2 [Compound 2-88, 6-fluoro-N2-(7-methoxy-2-methyl-1,2,3,4-tetrahydroisoquinolin-6-yl)-7-(8-methyl-2,3-dihydro-1H-pyrido[2,3-b][1,4]oxazin-7-yl)quinazoline-2,5-diamine]
0.0417 nM	CNC(=O)C1(c2ccc(Nc3ncc4c(N)c(F)c(-c5cnc6c(c5C)NCCO6)cc4n3)cc2)CCCC1 [Compound 2-83, 1-(4-((5-amino-6-fluoro-7-(8-methyl-2,3-dihydro-1H-pyrido[2,3-b][1,4]oxazin-7-yl)quinazolin-2-yl)amino)phenyl)-N-methylcyclopentane-1-carboxamide]
824 nM	COc1cc2c(cc1Nc1ncc3ccc(NC4(C(=O)N(C)C)CCC4)cc3n1)CN(C)CC2 [Compound 3-61, 1-({2-[(6-methoxy-2-methyl-1,2,3,4-tetrahydroisoquinolin-7-yl)amino]quinazolin-7-yl}-amino)-N,N-dimethylcyclo-butane-1-carboxamide]
0.0199 nM	Cc1c(-c2c(F)c(N)c3cnc(Nc4ccc5c(c4)CN(C)CC54CC4)nc3c2Br)cnc2c1NCCO2 [Compound 2-111, (+ or −)-8-bromo-6-fluoro-7-(8-methyl-2,3-dihydro-1H-pyrido[2,3-b][1,4]oxazin-7-yl)-N~2~- (2′-methyl-2′,3′-dihydro-1′H-spiro[cyclopropane-1,4′-isoquinolin]-7′-yl)quinazoline-2,5-diamine]
0.0932 nM	Cc1c(-c2cc3nc(Nc4ccc(NS(C)(=O)=O)cc4)ncc3c(N)c2F)cnc2c1NCCO2 [Compound 2-16, N-(4-{[5-amino-6-fluoro-7-(8-methyl-2,3-dihydro-1H-pyrido[2,3-b][1,4]oxazin-7-yl)quinazolin-2-yl]amino}phenyl)methane-sulfonamide]
0.0066 nM	Cc1c(-c2cc3nc(Nc4ccc5c(c4)CNCCC5)ncc3c(N)c2F)cnc2c1NCCO2 [Compound 2-120, 6-fluoro-7-(8-methyl-2,3-dihydro-1H-pyrido[2,3-b][1,4]oxazin-7-yl)-N~2~- (2,3,4,5-tetrahydro-1H-2-benzazepin-8-yl)quinazoline-2,5-diamine]
0.235 nM	Cc1c(-c2c(F)c(N)c3cnc(Nc4ccc(N5CCOC5=O)cc4)nc3c2Cl)cnc2c1NCCO2 (single isomer, unassigned) [Compound 2-156]
